Literature values in patent publication US20210236604A1, “THERAPEUTIC TREATMENT FOR NEUROTROPHIC KERATOPATHY” (priority 2017, published 2021).

Assays:
[1] = test system: corneal epithelium wound healing; settings: with substance-P; Nishida 2009; cited from earlier work
corneal abrasions = settings: diabetic rats, cited from earlier work
[2] = test system: sub-basal plexus corneal nerves; settings: diabetic mice; Chen 2013; cited from earlier work
decubitus ulcers = settings: Van Ort 1976; cited from earlier work
corneal ulcers = settings: systemic administration; Aynsley 1945; cited from earlier work
[3] = test system: experimentally-induced superficial skin wounds; settings: diabetic and non-diabetic individuals; Greenway 1999; cited from earlier work

For Insulin-like growth factor-1 [IGF-1], the “corneal epithelium wound healing” value [1] is given as “act synergistically with substance-P to promote corneal epithelium wound healing”.

In the case of insulin [topical insulin], the “wound healing after corneal abrasions” value (corneal abrasions; Zagon 2007, Klocek 2009) is listed as “improves wound healing”, the corneal sensation (corneal abrasions; Zagon 2007) is listed as “improves corneal sensation” and the “loss of sub-basal plexus corneal nerves” value [2] is listed as “slow the loss”. For the same substance, the “healing of decubitus ulcers” value (decubitus ulcers) was “improve healing”, the “healing of corneal ulcers” value (corneal ulcers) was “improved healing of corneal ulcers” and the “healing of experimentally-induced superficial skin wounds” value [3] was “improve healing”.
